Assay [1] has as its target human cytosolic Serine Hydroxymethyl transferase 1 (SHMT1) (Homo sapiens (Human), UniProt P34896). Put plainly: SHMT1 activity inhibition assay (serine production from glycine and CH2-THF, mass spectroscopy). In kind it is biochemical. The conditions noted are these: 60 minutes at room temperature. The text has this:
(§1) Full length human cytosolic Serine Hydroxymethyl transferase 1 (SHMT1, residues 1-483 in Uniport ID P34896) was expressed as an N-terminal His6 tagged protein and purified in E. coli using nickel capture followed by size-exclusion chromatography. Human mitochondrial SHMT2 (residues 30-504 in Uniprot ID P34897) with mitochondrial leader sequence deleted was expressed as an N-terminal His6 tagged protein and purified in E. coli using nickel capture followed by size-exclusion chromatography.
(§2) Serine hydroxymethyltransferases catalyze the reversible hydroxymethylation of glycine to serine, with methylene tetrahydrofolate (CH2-THF) providing the additional carbon. SHMT1 and SHMT2 activity was determined by measuring serine production from glycine and CH2-THF using mass spectroscopy. Briefly, 15 ul of 0.5 mM glycine and 0.2 mM CH2-THF in 20 mM TEA, pH8.0, 0.2 mM NADPH were added to 384 well plate containing 0, 0.05 mM, 0.005 mM or 0.0005 mM of inhibitor. 15 ul of SHMT1 or 2 were added to initiate the reaction. The plate was incubated for 60 minutes at room temperature and the reaction was quenched by the addition of 30 ul of 10% trichloroacetic acid. Serine produced was analyzed using Rapidfire 360 and API4000^+ in the positive ion mode.

Assay [2] concerns the target Human mitochondrial SHMT2 (Homo sapiens (Human), UniProt P34897). Put plainly: SHMT2 activity inhibition assay (serine production from glycine and CH2-THF, mass spectroscopy). It is filed as biochemical. The settings on record: 60 minutes at room temperature.
Source text: as §1
as §2, with “15 ul of SHMT1 or 2 were added to initiate the reaction.” left out

Molecules are shown by their SMILES. Where only a bound is given, the exact number is not on record here.

Sequence of human cytosolic Serine Hydroxymethyl transferase 1 (SHMT1) (P34896 whole entry, the tested form may be a part): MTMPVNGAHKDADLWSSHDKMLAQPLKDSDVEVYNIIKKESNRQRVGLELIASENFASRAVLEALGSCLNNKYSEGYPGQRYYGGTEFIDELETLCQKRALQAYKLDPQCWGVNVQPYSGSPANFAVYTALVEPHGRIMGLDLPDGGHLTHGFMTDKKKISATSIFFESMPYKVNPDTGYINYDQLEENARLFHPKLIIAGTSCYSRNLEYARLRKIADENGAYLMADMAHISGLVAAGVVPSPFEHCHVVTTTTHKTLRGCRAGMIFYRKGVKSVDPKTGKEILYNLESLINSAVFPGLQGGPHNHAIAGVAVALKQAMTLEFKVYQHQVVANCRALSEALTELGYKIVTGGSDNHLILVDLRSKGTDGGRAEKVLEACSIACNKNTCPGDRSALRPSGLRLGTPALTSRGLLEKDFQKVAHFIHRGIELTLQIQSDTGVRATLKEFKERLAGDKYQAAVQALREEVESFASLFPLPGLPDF
Sequence of Human mitochondrial SHMT2 (P34897 30-504): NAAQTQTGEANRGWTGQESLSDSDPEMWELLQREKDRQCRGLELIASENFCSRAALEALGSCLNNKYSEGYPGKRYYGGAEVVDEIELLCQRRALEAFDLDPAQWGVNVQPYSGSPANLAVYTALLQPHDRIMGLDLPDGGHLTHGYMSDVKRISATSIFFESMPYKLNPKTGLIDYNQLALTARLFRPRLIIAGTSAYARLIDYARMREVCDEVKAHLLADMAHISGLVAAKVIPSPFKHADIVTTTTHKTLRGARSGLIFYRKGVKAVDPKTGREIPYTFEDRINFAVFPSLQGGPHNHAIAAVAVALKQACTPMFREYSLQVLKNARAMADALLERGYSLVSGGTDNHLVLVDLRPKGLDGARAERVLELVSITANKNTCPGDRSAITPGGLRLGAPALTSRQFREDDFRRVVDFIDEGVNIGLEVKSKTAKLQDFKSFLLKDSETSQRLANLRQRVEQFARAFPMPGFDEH

In general, IC50 refers to the concentration needed to halve the response being measured. Read a low IC50 as greater potency in that assay. In turn, `COc1ccc(-c2nc(CC(=O)NC(C)(C)C(=O)O)cs2)c(-c2ccccc2)c1` [Compound I-13, 2-[[2-[2-(4-Methoxy-2-phenyl-phenyl)thiazol-4-yl]acetyl]amino]-2-methyl-propanoic Acid] registered a concentration for half-maximal inhibition (IC50) in assay [1] of 1 to 10 µM.
`CC(NC(=O)Cc1csc(-c2cccc(Br)c2)n1)C(=O)O` (centres unmarked) [Compound I-43]: the IC50 in assay [1] and in assay [2] was 10 to 100 µM in each case.
Take `O=C(Cc1csc(-c2cccc(Cl)c2)n1)N[C@@H](Cc1c[nH]c2ccccc12)C(=O)O` [Compound I-49]: the IC50 in assay [1] and in assay [2] was 100 to 500 µM in each case.
`O=C(Cc1csc(-c2ccc(Cl)cc2Cl)n1)N[C@@H](C(=O)O)c1ccccc1` [Compound I-55]: the IC50 in assay [1] and in assay [2] was 100 to 500 µM in each case.
As for `Cc1cccc(-c2cc(Cl)ccc2-c2nc(CC(=O)NC(C)(C)C(=O)O)cs2)c1C` [Compound I-9], the half-maximal inhibitory concentration (IC50) in assay [1] and in assay [2] was less than 1 µM each time.
Regarding `NC(=O)Cc1cc(Cl)ccc1-c1nc(CC(=O)NCC(=O)O)cs1` [Compound I-65, 2-(2-[2-[2-(carbamoylmethyl)-4-chlorophenyl]-1,3-thiazol-4-yl]acetamido)acetic Acid], the half-maximal inhibitory concentration (IC50) in assay [1] and in assay [2] was 100 to 500 µM throughout.
As to `O=C(O)CNC(=O)Cc1csc(-c2ccc(Cl)cc2-c2ccccc2)n1` [Compound I-34, 2-[2-[2-(4-chloro-2-phenylphenyl)-1,3-thiazol-4-yl]acetamido]acetic Acid], the IC50 in assay [1] and in assay [2] was 10 to 100 µM in each case.
As for `O=C(O)CNC(=O)C(c1ccccc1)c1csc(-c2ccc(Cl)cc2Cl)n1` (centres unmarked) [Compound I-66], the IC50 in assay [1] is 100 to 500 µM; in assay [2] it was more than 500 µM.
Consider `CC(C)(NC(=O)Cc1csc(-c2ccc(Cl)cc2C2CCOCC2)n1)C(=O)O` [Compound I-16, 2-[[2-[2-(4-Chloro-2-tetrahydropyran-4-yl-phenyl)thiazol-4-yl]acetyl]amino]-2-methyl-propanoic Acid], for which the figures for the half-maximal inhibitory concentration (IC50) in assay [1] and in assay [2] were 1 to 10 µM and less than 1 µM, respectively.
With `O=C(O)CNC(=O)Cc1csc(-c2ccc(OC(F)(F)F)cc2)n1` [Compound I-50], the IC50 in assay [1] and in assay [2] was 100 to 500 µM throughout.
As for `O=C(Cc1csc(-c2cccc(Br)c2)n1)N[C@@H](Cc1ccccc1)C(=O)O` [Compound I-52], the IC50 in assay [1] and in assay [2] was 100 to 500 µM in each case.
With `CC(C)(NC(=O)Cc1cccc(-c2ccc(Cl)cc2-c2cccc(C(N)=O)c2)c1)C(=O)O` [Compound I-19, 2-[[2-[3-[2-(3-Carbamoylphenyl)-4-chloro-phenyl]phenyl]acetyl]amino]-2-methyl-propanoic Acid], the concentration for half-maximal inhibition (IC50) in assay [1] is 1 to 10 µM; in assay [2], less than 1 µM.
Regarding `CC(C)c1ccc(-c2nc(CC(=O)N[C@@H](Cc3ccccc3)C(=O)O)cs2)cc1` [Compound I-56], the IC50 in assay [1] and in assay [2] was 100 to 500 µM in each case.
With `CC(C)[C@H](NC(=O)Cc1csc(-c2ccc(Cl)cc2Cl)n1)C(=O)O` [Compound I-58], the IC50 in assay [1] and in assay [2] was 100 to 500 µM each time.
For the molecule `O=C(Cc1csc(-c2cccc(Cl)c2)n1)N[C@@H](Cc1ccccc1)C(=O)O` [Compound I-68], the IC50 in assay [1] and in assay [2] was 100 to 500 µM in each case.
`CC(C)(NC(=O)Cc1csc(-c2ccc(Cl)cc2-c2cccc3c2CCC3)n1)C(=O)O` [Compound I-14]: the IC50 in assay [1] was 1 to 10 µM; in assay [2], less than 1 µM.
With `CC(C)(NC(=O)Cc1csc(-c2ccc(Cl)cc2-c2ccccc2)n1)C(=O)O` [Compound I-5], the IC50 in assay [1] and in assay [2] was less than 1 µM in each case.
Regarding `COc1ccccc1-c1nc(CC(=O)N[C@@H](C)C(=O)O)cs1` [Compound I-57], the IC50 in assay [1] lay in the range of 100 to 500 µM; in assay [2], 10 to 100 µM.
Take `O=C(Cc1csc(-c2cccc(Br)c2)n1)NC(Cc1ccccc1)C(=O)O` (centres unmarked) [Compound I-60]: the concentration for half-maximal inhibition (IC50) in assay [1] and in assay [2] was 100 to 500 µM in each case.
As for `CC(C)(NC(=O)Cc1ccnc(-c2ccc(Cl)cc2-c2ccccc2)c1)C(=O)O` [Compound I-20], the concentration for half-maximal inhibition (IC50) in assay [1] was 1 to 10 µM.

For the origin of these results see patent US11091451B2, “SHMT inhibitors and uses thereof” (Raze Therapeutics, Inc., priority 2016, dated 2021).
